Reference: patent US10415057B2, “Pseudotyping of retroviral vectors, methods for production and use thereof for targeted gene transfer and high throughput screening” (BUNDESREPUBLIK DEUTSCHLAND, LETZ[…], priority 2006, dated 2019)

System: CD20 positive Raji cells
Assay: Selective transduction and Gancyclovir killing of CD20 positive Raji cells in a Raji/K-562 mixture
Conditions: 10 μM GCV; gfp transduced cells
Description: The mutation of the MeV H protein comprises the four point mutations Y481A, R533A, S548L and F549S which ablates productive interactions with CD46 and SLAM, respectively. […] Furthermore, transduced cells can be detected by CD34 expression. In parallel, as a control, the same vector particles having packaged the go gene were applied.
For the generation of the vector particles calcium phosphate transfection was performed. 24 h before transfection, 6.5*10^6 HEK-293T cells were seeded into a T75 flask. 1 h before transfection the medium of the cells was exchanged against 7 ml fresh medium (DMEM with 4.5 g/l glucose, 3.7 g/l NaHCO3, 10% FCS, 1% glutamin). […]
The HmutscFvCD20Δ18/FcΔ30 pseudotyped HIV-1 vector particles either with packaged go gene or with packaged cd34tk39 gene were 1:5 diluted in 300 μl medium (RPMI 1640 with 2 g/l NaHCO3, 10% FCS, 1% glutamine) containing a mixture of 2*10^3 CD20+ Raji and 2*10^3 CD20− K-562 cells. […] Afterwards the percentages of CD20/GFP and CD20/CD34 double positive cells, respectively, were measured by FACS (time point 0 h in FIG. 18). […] At different time points the cells were stained with the respective antibodies and the double positive cells were measured by FACS (Dako Galaxy flow cytometry system; s. FIGS. 18A-18B).

For `Nc1nc(O)c2ncn(COC(CO)CO)c2n1` [GCV, Gancyclovir], the “Toxic effect of GCV by its own on the cells (CD20/GFP double positive fraction)” value was “no toxic effect”.
